Results from patent publication US20250230193A1, “CYCLIC COMPOUND HAVING SELECTIVE KRAS INHIBITORY EFFECT ON HRAS AND NRAS” (CHUGAI SEIYAKU KABUSHIKI KAISHA, priority 2022, published 2025).
Where a SMILES comes first, the peptide text is derived from it. Bridges are numbered along the chain shown (N, C = ends). [ ]: non-standard residue; d: D form. The star is where a group is joined. hPhe(3-Cl-4-CF3) = N[C@@H](CCc1ccc(C(F)(F)F)c(Cl)c1)C(=O)O; NPrPhe(4-CF3) = CCCN[C@@H](Cc1ccc(C(F)(F)F)cc1)C(=O)O; NMeGly(cPent) = CN[C@H](C(=O)O)C1CCCC1; Gly(N-propargyl) = C#CCNCC(=O)O; NMeD = CN[C@@H](CC(=O)O)C(=O)O; NMeL = CN[C@@H](CC(C)C)C(=O)O; Morpholide = C1CN(*)CCO1; Ac5c = NC1(C(=O)O)CCCC1; Ac4c = NC1(C(=O)O)CCC1; Sar = CNCC(=O)O

What was measured:
[1] = target: GDP-bound NRAS wild-type protein (Homo sapiens, UniProt P01111); test: Binding to NRAS by surface plasmon resonance (SPR), Single Cycle Kinetics; conditions: SPR
Sequence of GDP-bound NRAS wild-type protein (P01111 whole entry): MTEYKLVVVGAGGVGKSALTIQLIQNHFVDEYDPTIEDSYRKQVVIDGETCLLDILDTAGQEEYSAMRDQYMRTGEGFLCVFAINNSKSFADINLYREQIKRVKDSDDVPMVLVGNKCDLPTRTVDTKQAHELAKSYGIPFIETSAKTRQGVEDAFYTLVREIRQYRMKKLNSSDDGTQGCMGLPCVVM

[2] = target: GDP-bound HRAS wild-type protein (Homo sapiens, UniProt P01112); test: Binding to HRAS by surface plasmon resonance (SPR), Single Cycle Kinetics; conditions: SPR
Sequence of GDP-bound HRAS wild-type protein (P01112 whole entry): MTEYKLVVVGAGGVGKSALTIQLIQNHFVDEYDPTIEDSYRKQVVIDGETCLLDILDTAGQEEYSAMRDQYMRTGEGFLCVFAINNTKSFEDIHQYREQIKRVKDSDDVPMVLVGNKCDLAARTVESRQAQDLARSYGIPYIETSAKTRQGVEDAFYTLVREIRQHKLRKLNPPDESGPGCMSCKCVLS

[3] = GDP-bound NRAS wild-type vs GDP-bound KRAS wild-type
[4] = GDP-bound HRAS wild-type vs GDP-bound KRAS wild-type
[5] = KD ratio, GDP-bound NRAS wild-type vs GDP-bound KRAS wild-type
[6] = KD ratio, GDP-bound HRAS wild-type vs GDP-bound KRAS wild-type

CCOC[C@H]1C(=O)N[C@@H]([C@@H](C)CC)C(=O)N(C2CC2)CC(=O)N(C)[C@H]2C/C=C\CCN(C2=O)[C@@H](CC2CCCCC2)C(=O)N(C)CC(=O)N[C@@H](CCc2ccc(C(F)(F)F)c(OC)c2)C(=O)N2C[C@@H](C)C[C@H]2C(=O)N(C)C2(CCC2)C(=O)N(C)[C@@H](C2CCCC2)C(=O)N(C)[C@H](C(=O)N(C)C)CC(=O)N1C [PP2373]
NRAS/KRAS (ratio of KD value with respect to NRAS to KD value with respect to KRAS) [1, 3]: A (a compound having 10 or more and less than 20 is denoted as A) | HRAS/KRAS (ratio of KD value with respect to HRAS to KD value with respect to KRAS) [2, 4]: A (a compound having 10 or more and less than 20 is denoted as A)

CCCN1C(=O)CN(C)C(=O)CNC(=O)[C@H]([C@@H](C)CC)NC(=O)[C@H](CC(C)C)N(C)C(=O)C[C@@H](C(=O)N(C)C)N(C)C(=O)[C@H](C2CCCC2)N(C)C(=O)C2(CCC2)NC(=O)[C@@H]2CCCN2C(=O)[C@H](CCc2ccc(C(F)(F)F)c(Cl)c2)NC(=O)CN(C)C(=O)[C@@H]1Cc1ccc(C(F)(F)F)cc1 [PP0418] ([NMeL]IG[Sar][NPrPhe(4-CF3)][Sar][hPhe(3-Cl-4-CF3)]P[Ac4c][NMeGly(cPent)][NMeD]-NMe2; lactam N-11)
NRAS/KRAS (ratio of KD value with respect to GDP-bound NRAS wild-type protein to KD value with respect to KRAS) [1]: B (a compound having 3 or more and less than 10 is denoted as B) | HRAS/KRAS (ratio of KD value with respect to GDP-bound HRAS wild-type protein to KD value with respect to KRAS) [2]: C (A compound having a KD ratio of 0.1 or more and less than 3 is denoted as C)

CCO[C@@H]1C[C@H]2C(=O)NC3(CC(C)(C)C3)C(=O)N(C)[C@@H](C3CCCC3)C(=O)N(C)[C@H](C(=O)N(C)CC)CC(=O)N(C)[C@@H](C3CC3)C(=O)N[C@@H]([C@@H](C)CC)C(=O)N(C)CC(=O)N(C)[C@H]3C/C=C\CCN(C3=O)[C@@H](Cc3ccc(C(F)(F)F)cc3)C(=O)N(C)CC(=O)N[C@@H](CCc3ccc(C(F)(F)F)c(OC)c3)C(=O)N2C1 [PP1981]
NRAS/KRAS (ratio of KD value for NRAS to KD value for KRAS) [1, 5]: A (a compound having 10 or more and less than 20 is denoted as A) | HRAS/KRAS (ratio of KD value for HRAS to KD value for KRAS) [2, 6]: A (a compound having 10 or more and less than 20 is denoted as A)

C#CCN1CC(=O)N(C)CC(=O)N(CCC)[C@@H](Cc2ccc(C(F)(F)F)cc2)C(=O)N(C)CC(=O)N[C@@H](CCc2ccc(C(F)(F)F)c(Cl)c2)C(=O)N2CCC[C@H]2C(=O)NC2(CCCC2)C(=O)N(C)[C@@H](C2CCCC2)C(=O)N(C)[C@H](C(=O)N2CCOCC2)CC(=O)N(C)[C@@H](CC(C)C)C(=O)N[C@@H]([C@@H](C)CC)C1=O [PP0750] ([NMeL]I[Gly(N-propargyl)][Sar][NPrPhe(4-CF3)][Sar][hPhe(3-Cl-4-CF3)]P[Ac5c][NMeGly(cPent)][NMeD]-Morpholide; lactam N-11)
NRAS/KRAS (ratio of KD value with respect to GDP-bound NRAS wild-type protein to KD value with respect to KRAS) [1]: B (a compound having 3 or more and less than 10 is denoted as B) | HRAS/KRAS (ratio of KD value with respect to GDP-bound HRAS wild-type protein to KD value with respect to KRAS) [2]: C (A compound having a KD ratio of 0.1 or more and less than 3 is denoted as C)

CCO[C@@H]1C[C@H]2C(=O)NC3(CCC3)C(=O)N(C)[C@@H](C3CCCC3)C(=O)N(C)[C@H](C(=O)N3CCOCC3)CC(=O)N(C)[C@@H](COC)C(=O)N[C@@H]([C@@H](C)CC)C(=O)N(C)CC(=O)N(C)[C@H]3CCCCCN(C3=O)[C@@H](Cc3ccc(F)cc3)C(=O)N(C)CC(=O)N[C@@H](CCc3cc(F)c(C(F)(F)F)c(F)c3)C(=O)N2C1 [PP1179]
NRAS/KRAS (ratio of KD value with respect to NRAS to KD value with respect to KRAS) [1, 5]: B (a compound having 3 or more and less than 10 is denoted as B) | HRAS/KRAS (ratio of KD value with respect to HRAS to KD value with respect to KRAS) [2, 6]: B (a compound having 3 or more and less than 10 is denoted as B)

CCO[C@@H]1C[C@H]2C(=O)NC3(CCC3)C(=O)N(C)[C@@H](C3CCCC3)C(=O)N(C)[C@H](C(=O)N3CCOCC3)CC(=O)N(C)[C@@H](CC(C)C)C(=O)N[C@@H]([C@@H](C)CC)C(=O)N(C)CC(=O)N(C)[C@H]3CCCCCN(C3=O)[C@@H](Cc3ccc(F)cc3Cl)C(=O)N(C)CC(=O)N[C@@H](CCc3cc(F)c(C(F)(F)F)c(F)c3)C(=O)N2C1 [PP0918]
NRAS/KRAS (ratio of KD value with respect to NRAS to KD value with respect to KRAS) [1, 5]: B (a compound having 3 or more and less than 10 is denoted as B) | HRAS/KRAS (ratio of KD value with respect to HRAS to KD value with respect to KRAS) [2, 6]: B (a compound having 3 or more and less than 10 is denoted as B)

CCCOC[C@H]1C(=O)N[C@@H]([C@@H](C)CC)C(=O)N(C)CC(=O)N(C)[C@H]2C/C=C\CCN(C2=O)[C@@H](Cc2ccc(C)cc2)C(=O)N(C)CC(=O)N[C@@H](CCc2ccc(C(F)(F)F)c(Cl)c2)C(=O)N2C[C@H](C)C[C@H]2C(=O)NC2(CC(C)(C)C2)C(=O)N(C)[C@@H](C2CCCC2)C(=O)N(C)[C@H](C(=O)N(C)C)CC(=O)N1C [PP2234]
NRAS/KRAS (ratio of KD value with respect to NRAS to KD value with respect to KRAS) [1, 3]: A (a compound having 10 or more and less than 20 is denoted as A) | HRAS/KRAS (ratio of KD value with respect to HRAS to KD value with respect to KRAS) [2, 4]: A (a compound having 10 or more and less than 20 is denoted as A)
